# Test system: clathrin-dependent pathway or macro-pinocytosis pathway
# Assay: Effect of endocytosis pathway inhibitors on BTNP accumulation in cytoplasm in response to TTFields
# Assay type: cell-based
# Settings: specific inhibitors of clathrin-dependent or macro-pinocytosis pathway
# Source text: Nanoparticles (NPs) internalization into cells is known to be dependent on particle size and its zeta potential. NPs under 200 nm can be engulfed by cancer cells through clathrin-dependent pathway or macro-pinocytosis pathway. […] The data herein evidences that increased membrane permeability by TTFields can induce BTNP accumulation in cytoplasm of cancer cells.
row,SMILES,accumulation of BTNPs in cytoplasm in response to TTFields
1,CN(C)CCCN1c2ccccc2Sc2ccc(Cl)cc21 [chlorpromazine],did not modulate
2,N=C(N)NC(=O)c1nc(Cl)c(N)nc1N [amiloride],did not modulate
3,C=C1[C@@H](C)[C@H]2[C@H](Cc3ccccc3)NC(=O)[C@]23[C@H](OC(C)=O)/C=C/[C@@](C)(O)C(=O)[C@@H](C)C/C=C/[C@H]3[C@@H]1O [cytochalasin D],did not modulate

# Reference: patent US12397167B2, “Compositions and methods of altering the electric impedance to an alternating electric field” (NOVOCURE GMBH, priority 2019, dated 2025)
